The text below walks through data of article PMC8689225, “Cardiac ryanodine receptor N-terminal region biosensors identify novel inhibitors via FRET-based high-throughput screening” (The Journal of Biological Chemistry, 2021).

This assay addresses T1, mouse RyR2 NTR (Mus musculus, UniProt E9Q401, K30C/K441C, form not given).
T1 sequence (E9Q401 1-547 K30C/K441C): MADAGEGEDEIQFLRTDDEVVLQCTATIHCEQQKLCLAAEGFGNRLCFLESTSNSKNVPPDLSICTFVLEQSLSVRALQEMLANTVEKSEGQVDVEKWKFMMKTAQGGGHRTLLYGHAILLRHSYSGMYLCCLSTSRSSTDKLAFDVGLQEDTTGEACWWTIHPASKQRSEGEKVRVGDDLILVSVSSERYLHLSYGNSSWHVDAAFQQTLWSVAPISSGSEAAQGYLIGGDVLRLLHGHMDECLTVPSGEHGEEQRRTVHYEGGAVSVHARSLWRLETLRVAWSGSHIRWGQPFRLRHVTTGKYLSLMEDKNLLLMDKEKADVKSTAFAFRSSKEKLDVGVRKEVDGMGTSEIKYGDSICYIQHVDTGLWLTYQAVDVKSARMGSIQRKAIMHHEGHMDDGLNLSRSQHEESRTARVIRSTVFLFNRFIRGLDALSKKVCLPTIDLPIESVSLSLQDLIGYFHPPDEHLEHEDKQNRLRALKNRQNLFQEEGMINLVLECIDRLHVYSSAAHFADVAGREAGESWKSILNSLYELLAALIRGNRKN
The assay can be described thus: FLT-FRET dose-response with AC-NTR biosensor. In kind it is binding. To be noted: AC-NTR biosensor. From the text:
The NTR of mouse RyR2 (residues 1–547) was cloned and expressed as previously described ([27]). The DNA construct contains a 6×His tag, a maltose-binding protein (MBP) tag, and a tobacco etch virus (TEV) protease cleavage site. The seven native solvent-exposed cysteine residues were substituted with alanine residues, and two constructs were engineered with Cys substitutions at surface residues R383 and K441 (in the B and C domains, respectively; termed BC) and at K30 and K441 (in the A and C domains, respectively; termed AC) for labeling with spectroscopic probes such as appropriate donor–acceptor fluorophores for FRET (for the purpose of this report, these are considered the WT forms of AC and BC). A variant of the BC construct corresponding to the disease-associated mutant (R420Q) was also prepared. For this site-directed mutagenesis work, we used the QuikChange (Stratagene) and Phusion High-Fidelity PCR (Thermo Fisher Scientific) kits. The WT-NTR, R420Q-NTR, AC- and BC-NTR, AC- and BC-R420Q-NTR protein constructs were expressed in Escherichia coli Rosetta (DE3) pLacI cells at 18 °C and purified with a protocol adapted from previously published work ([26]). An amylose column was first applied after the cells were lysed by ultrasonication. The protein in the elution was then cleaved using TEV protease. The cleaved crude protein went through the second amylose column to separate from the MBP and then followed by a Superdex S-200 size exclusion column in a buffer consisting of 250 mM KCl, 10 mM HEPES, and 14 mM β-mercaptoethanol (pH 7.4). The NTR protein (3 μM) was then incubated in 10 mM HEPES, 250 mM KCl (pH 7.4, 2 h, 21 °C) with the fluorescent probes Alexa Fluor 488 maleimide (AF488, donor; 40 μM) and Alexa Fluor 568 maleimide (AF568, acceptor; 60 μM). The maleimide of the dye reacts with the thiols the Cys residues engineered into NTR, forming a covalently labeled protein. The Alexa dyes were added last to the reaction mixture, from 10 mM DMSO stock solutions. This reaction is not selective to one site (K30C or K441C), and we anticipate that there is a mixed population with K30C or K441C labeled with either AF488 (donor) or AF568 (acceptor). We focused on maximizing the fraction containing donor–acceptor pairs, thus maximizing FRET efficiency and the precision for detecting a change in structure as an indication that a compound interacts with the NTR biosensor. The labeling efficiency was determined by comparing the molar concentration of the bound dye, determined from UV-Vis absorbance, to the protein concentration, determined from gel densitometry. Essentially complete labeling was confirmed from electrospray ionization mass spectrometry. CD spectra of the WT-NTR and mutant R420Q-NTR constructs before and after labeling were recorded using a JASCO J-815 CD spectrometer (JASCO), confirming similar folding (Fig. S1).
The 1536-well assay plates were prepared as described in our previous reports ([21]). The LOPAC (Sigma-Aldrich) collection received in 96-well plates was reformatted into 384-well polypropylene intermediate plates (Greiner Bio-One) using a multichannel liquid handler, BioMek FX (Beckman Coulter), then transferred to 384-well Echo Qualified source plates (Labcyte Inc). Assay plates were prepared as previously described ([20]). On screening days, these plates were thawed out and were loaded with labeled NTR (5 μl, 20 nM final concentration) using a Multidrop Combi automated sample dispenser.
HTS measurements were conducted in a prototype top-read FLT plate reader (FLT-PR, Fluorescence Innovations, Inc), which reads each 1536-well plate in ∼3 min ([63], [64]). AF488 donor fluorescence was excited with a 473 nm microchip laser from Concepts Research Corporation, and the emission signal was split into two channels by a dichroic mirror and acquired with 517 ± 10 nm (channel 1) and 535 ± 7 nm band-pass filters (channel 2) (Semrock). […]

As for `CC(=O)O[C@H]1C[C@@]2(C)[C@@H](C[C@@H](O)[C@H]3[C@@]4(C)CC[C@@H](O)[C@@H](C)[C@@H]4CC[C@@]32C)/C1=C(\CCC=C(C)C)C(=O)O` [FA, (2Z)-2-[(3R,4S,5S,8S,9S,10S,11R,13R,14S,16S)-16-acetyloxy-3,11-dihydroxy-4,8,10,14-tetramethyl-2,3,4,5,6,7,9,11,12,13,15,16-dodecahydro-1H-cyclopenta[a]phenanthren-17-ylidene]-6-methylhept-5-enoic acid], the ΔFLT result (0 to 100 μM, CPNQ/corbadrine decrease FLT, FA/tacrolimus increase FLT) is “≈ 0.1 ns”. For the same compound, the EC50 – broadly, the concentration giving half of the maximal effect – (read-out: EC50, FRET dose-response, Hill fit, Table S4) was determined as 3.8 µM.
